Laboratory results from PubChem BioAssay (NCI).
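Protocol summary: plate cells (96-well), add compound at 5 concentrations, incubate 48 h, interpolate endpoints linearly. GI50 marks 50% less growth. TGI is the concentration that stops growth completely.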

Legend:
Assay in all cases: NCI tumour cell line growth inhibition, 48 h
[1] = test system: A498 renal
[2] = test system: NCI/ADR-RES ovarian
[3] = test system: MDA-MB-231 breast
[4] = test system: M14 melanoma
[5] = test system: HT29 colon
[6] = test system: RPMI-8226 leukemia
[7] = test system: CAKI-1 renal
[8] = test system: HCC-2998 colon
[9] = test system: OVCAR-3 ovarian
[10] = test system: EKVX NSCLC

SMILES	GI50 [1] [µM]	TGI [1] [µM]	GI50 [2] [µM]	TGI [2] [µM]	GI50 [3] [µM]	TGI [3] [µM]	GI50 [4] [µM]	TGI [4] [µM]	GI50 [5] [µM]	TGI [5] [µM]	GI50 [6] [µM]	TGI [6] [µM]	GI50 [7] [µM]	TGI [7] [µM]	GI50 [8] [µM]	TGI [8] [µM]	GI50 [9] [µM]	TGI [9] [µM]	GI50 [10] [µM]	TGI [10] [µM]
Nc1nc(N)c(-c2ccc(Cl)c(Cl)c2)c(CP(Cl)(Cl)(Cl)Br)n1	22.9	> 100	11.7	> 100	9.62	> 100	6.62	> 100	6.14	> 100	17.3	> 100	14.7	> 100	19.9	> 100	21.1	> 100	–	–
CC(=O)/C=C/c1ccc(N(CCO)Cc2ccc(C(C)(C)C)cc2)cc1	113	236	39.1	174	87.9	225	48.9	200	27.7	103	28.2	72.5	–	–	152	321	60.3	187	31	162
N#CC(C#N)=C1CCC2C(=C(C#N)C#N)CCC12 (configuration not stated)	–	> 100	–	–	–	–	–	> 100	–	> 100	–	> 100	–	> 100	–	> 100	–	> 100	–	> 100
FC(F)(F)c1nc(Br)[nH]c1C(F)(F)F	–	–	–	–	–	–	–	> 100	–	> 100	–	> 100	–	> 100	–	> 100	–	> 100	–	> 100
CC(=O)[CH-]C(=O)c1ccccc1.CC(=O)[CH-]C(=O)c1ccccc1.CC(=O)[CH-]C(=O)c1ccccc1.[Br-].[Zr+4]	24.9	> 100	–	–	–	–	45	> 100	48.3	> 100	72.5	> 100	37.2	> 100	–	–	48.1	> 100	57.5	> 100
Nc1cc(N)c2nc(-c3ccccc3)c(NCc3ccc(Cl)c(Cl)c3)nc2c1	17.4	32.4	17.4	45.6	1.58	4.45	15.7	34.6	–	–	1.66	3.72	13.2	52.7	–	–	2.64	6.98	10.9	38.7
Cc1ccc(C2C3Cc4ccccc4C3=NN2c2ccc(S(=O)(=O)NC(=O)Nc3ccccc3)cc2)cc1 (configuration not stated)	15.6	30.7	14.7	38.8	10.8	22.7	17	40.3	24.3	> 100	15	47.2	14.6	37.9	–	–	14.7	36.5	13.7	33
CC(C)(C)OC1=C(OC(C)(C)C)C(O)(c2ccc(Cl)cc2)C1=O (configuration not stated)	–	> 100	–	–	–	–	–	> 100	–	> 100	–	> 100	–	–	–	> 100	–	> 100	–	> 100
C=C1C(C(=O)O)C1C(=O)O (configuration not stated)	–	> 100	–	–	–	–	–	> 100	–	> 100	–	> 100	–	> 100	–	> 100	–	–	–	> 100
CC(=O)c1ccc(Oc2c3ccccc3nc3occc23)cc1	28.1	80.6	2.52	9.81	–	–	6.81	> 100	7.13	> 100	4.63	> 100	–	–	6.35	34	2.19	6.58	73.3	> 100
CCOC(=O)c1ccc(NC(=O)c2cccc(NC3=C(Cl)C(=O)N(Cc4ccccc4)C3=O)c2)cc1	> 100	> 100	–	–	92	> 100	> 100	> 100	> 100	> 100	37.5	> 100	> 100	> 100	–	–	> 100	> 100	> 100	> 100
CC(=O)O[C@H]1CC[C@]2(C)C3C(=O)C[C@]4(C)[C@@H](C(C)CCC(=O)O)CC[C@@]4(C)[C@@H]3CC[C@H]2C1(C)C (some centres not stated)	22.2	> 50	16.5	> 50	> 50	> 50	20.5	> 50	18.6	> 50	9.79	> 50	20.8	46.1	–	–	25.9	> 50	10.2	36.8
CSc1cc(C(C)(C)C)ccc1C(O)c1ccc(C(C)(C)C)cc1SC	–	26.7	–	–	–	–	–	26.9	–	19.6	–	–	–	24.9	–	32.1	–	24.9	–	21.2
CCOC(=O)c1cc2c(n1Cc1ccccc1OC)-c1oncc1CCC2	3.46	> 100	1.36	> 100	9.12	> 100	3.67	> 100	0.912	> 100	4.11	> 100	3.51	> 100	> 100	> 100	0.874	6.49	–	–
CCc1ccccc1NC(=O)C(=O)C(C#N)c1c(Cl)cccc1Cl (configuration not stated)	–	–	–	–	–	–	–	> 100	–	> 100	–	> 100	–	> 100	–	–	–	> 100	–	> 100
O=C(Nc1ccc(Cl)cc1)N1CCN(c2ccc3nncn3n2)CC1	11.2	96.6	> 100	> 100	63.2	> 100	56.2	> 100	60.7	> 100	29.7	> 100	30.3	> 100	81.8	> 100	62.4	> 100	–	–
